Test results: patent publication US12252524B2, “GIP/GLP1 co-agonist compounds” (Eli Lilly and Company, priority 2018, dated 2025)
Numbered stars: 1 amine (or outer) side, 2 acyl side, 3 side chain; on linkers, the order of the positions; unused ones are H or OH. Square brackets hold non-standard residues; d marks the D form. Side chains are listed from the residue outwards. Peptide text beside a SMILES is read from it. * marks the point of attachment. C20 diacid = O=C(O)CCCCCCCCCCCCCCCCCCC(=O)*; C18 diacid = O=C(O)CCCCCCCCCCCCCCCCC(=O)*; αMePhe(2-F) = C[C@](N)(Cc1ccccc1F)C(=O)O; γGlu = O=C(O)[C@H](CCC(=O)[*:2])N[*:1]; αMeF = C[C@](N)(Cc1ccccc1)C(=O)O; 3Pal = N[C@@H](Cc1cccnc1)C(=O)O; 4Pal = N[C@@H](Cc1ccncc1)C(=O)O; αMeL = CC(C)C[C@](C)(N)C(=O)O; AEEA = NCCOCCOCC(=O)O; Aib = CC(C)(N)C(=O)O

What was measured:
[1] = target: human GLP-1 receptor (GLP-1R) (Homo sapiens, UniProt P43220); test: cAMP pharmacological functional assay in presence of casein, hGLP-1R; type: cell-based; conditions: HEK293 cells expressing hGLP-1R, 0.1% Casein, geometric mean; read-out: hGLP1R cAMP Rel EC50 nM (SEM, n)
Chain of human GLP-1 receptor (GLP-1R) (P43220 24-463): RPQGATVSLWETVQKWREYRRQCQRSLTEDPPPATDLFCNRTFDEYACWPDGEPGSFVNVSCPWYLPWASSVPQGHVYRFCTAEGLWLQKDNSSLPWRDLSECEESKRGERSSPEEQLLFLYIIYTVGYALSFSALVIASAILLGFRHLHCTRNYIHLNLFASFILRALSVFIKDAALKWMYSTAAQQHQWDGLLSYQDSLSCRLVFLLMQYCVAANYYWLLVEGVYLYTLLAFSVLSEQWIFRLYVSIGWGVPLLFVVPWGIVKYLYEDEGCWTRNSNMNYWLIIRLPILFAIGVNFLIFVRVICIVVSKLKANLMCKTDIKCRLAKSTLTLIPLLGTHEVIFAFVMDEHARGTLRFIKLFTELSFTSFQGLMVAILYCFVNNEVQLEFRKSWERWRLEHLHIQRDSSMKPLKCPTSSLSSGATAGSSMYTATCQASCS

[2] = target: T1, gastric inhibitory peptide receptor (GIPR) (Homo sapiens, UniProt P48546); test: cAMP pharmacological functional assay in presence of casein, hGIPR; type: cell-based; conditions: HEK293 cells expressing hGIPR, 0.1% Casein, geometric mean; read-out: hGIPR cAMP Rel EC50 nM (SEM, n)
T1 sequence (P48546 22-466): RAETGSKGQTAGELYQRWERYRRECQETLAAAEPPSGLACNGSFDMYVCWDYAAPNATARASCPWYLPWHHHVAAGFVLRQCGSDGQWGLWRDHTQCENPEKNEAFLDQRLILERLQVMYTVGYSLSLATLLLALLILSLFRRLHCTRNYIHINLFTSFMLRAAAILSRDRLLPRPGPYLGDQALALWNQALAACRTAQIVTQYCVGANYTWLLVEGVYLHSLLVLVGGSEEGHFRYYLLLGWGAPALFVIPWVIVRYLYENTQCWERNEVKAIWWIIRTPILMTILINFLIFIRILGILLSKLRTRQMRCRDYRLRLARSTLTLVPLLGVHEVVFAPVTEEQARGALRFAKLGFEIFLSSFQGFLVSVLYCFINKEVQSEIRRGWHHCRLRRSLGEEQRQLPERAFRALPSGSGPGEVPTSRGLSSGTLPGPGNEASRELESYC

human Gcg receptor = target: T2, human Gcg receptor (Homo sapiens, UniProt P47871); test: [125I]-Glucagon binding (SPA), human Gcg receptor; conditions: read-out: hGLcgR Ki, nM (SEM, n)
T2 construct: expressed in transfected cells; crude membranes
T2 sequence (P47871 26-477): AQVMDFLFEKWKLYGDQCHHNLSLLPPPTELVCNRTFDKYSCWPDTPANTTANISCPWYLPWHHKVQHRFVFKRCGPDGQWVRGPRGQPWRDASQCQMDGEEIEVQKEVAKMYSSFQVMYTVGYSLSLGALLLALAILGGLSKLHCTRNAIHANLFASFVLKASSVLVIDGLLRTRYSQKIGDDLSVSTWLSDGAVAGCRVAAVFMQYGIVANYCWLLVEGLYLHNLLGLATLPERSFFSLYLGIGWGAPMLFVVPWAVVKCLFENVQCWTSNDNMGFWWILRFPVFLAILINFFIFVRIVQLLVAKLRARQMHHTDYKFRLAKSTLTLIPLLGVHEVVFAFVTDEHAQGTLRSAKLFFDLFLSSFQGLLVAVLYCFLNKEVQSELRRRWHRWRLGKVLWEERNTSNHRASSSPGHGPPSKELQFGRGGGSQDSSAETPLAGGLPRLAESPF
Description: (§1) Two methods are used for the preparation of crude cell membranes.
(§2) Method 1: Frozen cell pellets are lysed on ice in hypotonic buffer containing 50 mM Tris HCl, pH 7.5, and Roche Complete™ Protease Inhibitors with EDTA. The cell suspension is disrupted using a glass Potter-Elvehjem homogenizer fitted with a Teflon® pestle for 25 strokes. The homogenate is centrifuged at 4° C. at 1100×g for 10 minutes. The supernatant is collected and stored on ice while the pellets are resuspended in homogenization buffer and rehomogenized as described above. The homogenate is centrifuged at 1100×g for 10 minutes. The second supernatant is combined with the first supernatant and centrifuged at 35000×g for 1 hour at 4° C. The resulting membrane pellet is resuspended in homogenization buffer containing protease inhibitors at approximately 1 to 3 mg/mL, quick frozen in liquid nitrogen and stored as aliquots in a−80° C. freezer until use.
(§3) Method 2: Frozen cell pellets are lysed on ice in hypotonic buffer containing 50 mM Tris HCl, pH 7.5, 1 mM MgCl2, Roche Complete™ EDTA-free Protease Inhibitors and 25 units/ml DNAse I (Invitrogen). The cell suspension is disrupted using a glass Potter-Elvehjem homogenizer fitted with a Teflon® pestle for 20 to 25 strokes. The homogenate is centrifuged at 4° C. at 1800×g for 15 minutes. The supernatant is collected and stored on ice while the pellets are resuspended in homogenization buffer (without DNAse I) and rehomogenized as described above. The homogenate is centrifuged at 1800×g for 15 minutes. The second supernatant is combined with the first supernatant and centrifuged an additional time at 1800×g for 15 minutes. The overall supernatant is then centrifuged at 25000×g for 30 minutes at 4° C. The resulting membrane pellet is resuspended in homogenization buffer (without DNAse I) containing protease inhibitors at approximately 1 to 3 mg/mL and stored as aliquots in a−80° C. freezer until use.
The human Gcg receptor binding assays are performed using a Scintillation Proximity Assay (SPA) format with wheat germ agglutinin (WGA) beads (Perkin Elmer). The binding buffer contains 25 mM 4-(2-hydroxyethyl)-1-piperazineethanesulfonic acid (HEPES), pH 7.4, 2.5 mM CaCl2, 1 mM MgCl2, 0.1% (w/v) bacitracin (Research Products), 0.003% (w/v) Polyoxyethylenesorbitan monolaurate (TWEEN©-20), and Roche Complete™ Protease Inhibitors without EDTA. […] Plates are sealed and mixed on a plate shaker (setting 6) for 1 minute and read with a PerkinElmer Trilux MicroBeta© scintillation counter after 12 hours of incubation/settling time at room temperature.
(§4) Data are analyzed using four-parameter (curve maximum, curve minimum, IC50, Hill slope) nonlinear regression routines (Genedata Screener, version 12.0.4, Genedata AG, Basal, Switzerland). […] Values for Ki are reported as the geometric mean, with error expressed as the standard error of the mean (SEM) and n is equal to the number of independent replicates (determined in assays performed on different days). […] The Ki Ratio is a rapid indication of the apparent affinity of a peptide compared to the native control peptide. […] SEM is only calculated when n=2 or greater non-qualified results exist. Means are expressed as GeoMetric means with the standard error of the mean (SEM) and the number of replicates (n) indicated in parenthesis.

human GIP receptor = target: T3, human GIP receptor (Homo sapiens, UniProt P48546); test: [125I]-GIP binding (SPA), human GIP receptor; conditions: read-out: hGIPR Ki, nM (SEM, n)
T3 construct: expressed in transfected cells; crude membranes
T3 sequence (P48546 22-466): T1 sequence (P48546 22-466)
Description: as §1, §2, §3
The binding buffer contains 25 mM HEPES, pH 7.4, 2.5 mM CaCl2, 1 mM MgCl2, 0.1% (w/v) bacitracin, 0.003% (w/v) TWEEN©-20, and Roche Complete™ Protease Inhibitors without EDTA. Peptides and GIP are thawed and 3 fold serially diluted in 100% DMSO (10 point concentration response curves). […] Plates are sealed and mixed on a plate shaker (setting 6) for 1 minute and read with a PerkinElmer Trilux MicroBeta© scintillation counter after 2.5 to 12 hours of incubation/settling time at room temperature.
as §4

human GLP-1R = human GLP-1R (Homo sapiens, UniProt P43220); test: [125I]-GLP-1 binding (SPA), human GLP-1 receptor; parameters: expressed in transfected cells; crude membranes; conditions: read-out: hGLP1R Ki, (nM) (SEM, n)
Chain of human GLP-1R (P43220 24-463): as the sequence (P43220 24-463) above
Description: as §1, §2, §3
The binding buffer contains 25 mM HEPES, pH 7.4, 2.5 mM CaCl2, 1 mM MgCl2, 0.1% (w/v) bacitracin, 0.003% (w/v) TWEEN©-20, and Roche Complete™ Protease Inhibitors without EDTA.
as §4

CC[C@H](C)[C@H](NC(=O)[C@H](CC(C)C)NC(=O)[C@H](Cc1ccc(O)cc1)NC(=O)[C@H](CCC(=O)O)NC(=O)[C@@H](NC(=O)[C@H](Cc1ccccc1)NC(=O)[C@@H](NC(=O)C(C)(C)NC(=O)[C@H](CCC(N)=O)NC(=O)[C@H](C)NC(=O)[C@H](CCCCNC(=O)COCCOCCNC(=O)COCCOCCNC(=O)CC[C@H](NC(=O)CCCCCCCCCCCCCCCCCCC(=O)O)C(=O)O)NC(=O)[C@H](CCCCN)NC(=O)[C@H](CC(=O)O)NC(=O)[C@H](CC(C)C)NC(=O)[C@](C)(CC(C)C)NC(=O)[C@@H](NC(=O)[C@H](CO)NC(=O)[C@H](Cc1ccc(O)cc1)NC(=O)[C@H](CC(=O)O)NC(=O)[C@H](CO)NC(=O)[C@@H](NC(=O)[C@](C)(Cc1ccccc1)NC(=O)[C@@H](NC(=O)CNC(=O)[C@H](CCC(=O)O)NC(=O)C(C)(C)NC(=O)[C@@H](N)Cc1ccc(O)cc1)[C@@H](C)O)[C@@H](C)O)[C@@H](C)CC)[C@@H](C)O)[C@@H](C)CC)C(=O)N[C@@H](CCC(=O)O)C(=O)NCC(=O)NCC(=O)N1CCC[C@H]1C(=O)N[C@@H](CO)C(=O)N[C@@H](CO)C(=O)NCC(=O)N[C@@H](C)C(=O)N1CCC[C@H]1C(=O)N1CCC[C@H]1C(=O)N1CCC[C@H]1C(=O)N[C@@H](CO)C(N)=O [Example 139] (H-Y[Aib]EGT[αMeF]TSDYSI[αMeL]LDKK([AEEA-AEEA-γGlu-C20 diacid])AQ[Aib]TFIEYLIEGGPSSGAPPPS-NH2)
EC50 [1]: 0.0417 nM | EC50 [2]: 0.037 nM | Ki (human Gcg receptor): 105 nM | Ki (human GIP receptor): 0.036 nM

CC[C@H](C)[C@H](NC(=O)[C@H](CC(C)C)NC(=O)[C@H](Cc1ccc(O)cc1)NC(=O)[C@@H](CCC(=O)O)NC(=O)[C@@H](NC(=O)[C@H](Cc1ccccc1)NC(=O)[C@H](CCC(=O)O)NC(=O)C(C)(C)NC(=O)[C@H](CCC(N)=O)NC(=O)[C@H](C)NC(=O)[C@H](CCCCNC(=O)COCCOCCNC(=O)COCCOCCNC(=O)CC[C@H](NC(=O)CCCCCCCCCCCCCCCCCCC(=O)O)C(=O)O)NC(=O)[C@H](CCC(=O)O)NC(=O)[C@H](CC(=O)O)NC(=O)[C@H](CC(C)C)NC(=O)[C@](C)(CC(C)C)NC(=O)[C@@H](NC(=O)[C@H](CO)NC(=O)[C@H](Cc1cccnc1)NC(=O)[C@H](CC(=O)O)NC(=O)[C@H](CO)NC(=O)[C@@H](NC(=O)[C@](C)(Cc1ccccc1F)NC(=O)[C@@H](NC(=O)CNC(=O)[C@H](CCC(=O)O)NC(=O)C(C)(C)NC(=O)[C@@H](N)Cc1ccc(O)cc1)[C@@H](C)O)[C@@H](C)O)[C@@H](C)CC)[C@@H](C)CC)C(=O)N[C@@H](CCC(=O)O)C(=O)NCC(=O)NCC(=O)N1CCC[C@H]1C(=O)N[C@@H](CO)C(=O)N[C@@H](CO)C(=O)NCC(=O)N[C@@H](C)C(=O)N1CCC[C@H]1C(=O)N1CCC[C@H]1C(=O)N1CCC[C@H]1C(=O)N[C@@H](CO)C(N)=O [Example 181] (H-Y[Aib]EGT[αMePhe(2-F)]TSD[3Pal]SI[αMeL]LDEK([AEEA-AEEA-γGlu-C20 diacid])AQ[Aib]EFI[dE]YLIEGGPSSGAPPPS-NH2)
Ki (human GLP-1R): 7.28 nM | Ki (human Gcg receptor): 413 nM | Ki (human GIP receptor): 0.145 nM

CC[C@H](C)[C@H](NC(=O)[C@H](CC(C)C)NC(=O)[C@H](Cc1ccc(O)cc1)NC(=O)[C@@H](CCC(=O)O)NC(=O)[C@@H](NC(=O)[C@H](Cc1ccccc1)NC(=O)[C@H](CCC(=O)O)NC(=O)C(C)(C)NC(=O)[C@H](CCC(N)=O)NC(=O)[C@H](C)NC(=O)[C@H](CCCCNC(=O)COCCOCCNC(=O)COCCOCCNC(=O)CC[C@H](NC(=O)CCCCCCCCCCCCCCCCCCC(=O)O)C(=O)O)NC(=O)[C@H](CCC(=O)O)NC(=O)[C@H](CC(=O)O)NC(=O)[C@H](CC(C)C)NC(=O)[C@](C)(CC(C)C)NC(=O)[C@@H](NC(=O)[C@H](CO)NC(=O)[C@H](Cc1ccncc1)NC(=O)[C@H](CC(=O)O)NC(=O)[C@H](CO)NC(=O)[C@@H](NC(=O)[C@](C)(Cc1ccccc1F)NC(=O)[C@@H](NC(=O)CNC(=O)[C@H](CCC(=O)O)NC(=O)C(C)(C)NC(=O)[C@@H](N)Cc1ccc(O)cc1)[C@@H](C)O)[C@@H](C)O)[C@@H](C)CC)[C@@H](C)CC)C(=O)N[C@@H](CCC(=O)O)C(=O)NCC(=O)NCC(=O)N1CCC[C@H]1C(=O)N[C@@H](CO)C(=O)N[C@@H](CO)C(=O)NCC(=O)N[C@@H](C)C(=O)N1CCC[C@H]1C(=O)N1CCC[C@H]1C(=O)N1CCC[C@H]1C(=O)N[C@@H](CO)C(N)=O [Example 182] (H-Y[Aib]EGT[αMePhe(2-F)]TSD[4Pal]SI[αMeL]LDEK([AEEA-AEEA-γGlu-C20 diacid])AQ[Aib]EFI[dE]YLIEGGPSSGAPPPS-NH2; N-terminus assumed)
Ki (human GLP-1R): 4.64 nM | EC50 [2]: 0.0442 nM | Ki (human Gcg receptor): 565 nM | Ki (human GIP receptor): 0.0669 nM

CC[C@H](C)[C@H](NC(=O)[C@H](CC(C)C)NC(=O)[C@H](Cc1ccc(O)cc1)NC(=O)[C@@H](CCC(=O)O)NC(=O)[C@@H](NC(=O)[C@H](Cc1ccccc1)NC(=O)[C@H](CCC(=O)O)NC(=O)C(C)(C)NC(=O)[C@H](CCC(N)=O)NC(=O)[C@H](C)NC(=O)[C@H](CCCCNC(=O)COCCOCCNC(=O)COCCOCCNC(=O)CC[C@H](NC(=O)CCCCCCCCCCCCCCCCC(=O)O)C(=O)O)NC(=O)[C@H](CCC(=O)O)NC(=O)[C@H](CC(=O)O)NC(=O)[C@H](CC(C)C)NC(=O)[C@](C)(CC(C)C)NC(=O)[C@@H](NC(=O)[C@H](CO)NC(=O)[C@H](Cc1ccncc1)NC(=O)[C@H](CC(=O)O)NC(=O)[C@H](CO)NC(=O)[C@@H](NC(=O)[C@](C)(Cc1ccccc1F)NC(=O)[C@@H](NC(=O)CNC(=O)[C@H](CCC(=O)O)NC(=O)C(C)(C)NC(=O)[C@@H](N)Cc1ccc(O)cc1)[C@@H](C)O)[C@@H](C)O)[C@@H](C)CC)[C@@H](C)CC)C(=O)N[C@@H](CCC(=O)O)C(=O)NCC(=O)NCC(=O)N1CCC[C@H]1C(=O)N[C@@H](CO)C(=O)N[C@@H](CO)C(=O)NCC(=O)N[C@@H](C)C(=O)N1CCC[C@H]1C(=O)N1CCC[C@H]1C(=O)N1CCC[C@H]1C(=O)N[C@@H](CO)C(N)=O [Example 204] (H-Y[Aib]EGT[αMePhe(2-F)]TSD[4Pal]SI[αMeL]LDEK([AEEA-AEEA-γGlu-C18 diacid])AQ[Aib]EFI[dE]YLIEGGPSSGAPPPS-NH2)
EC50 [1]: 0.0654 nM | EC50 [2]: 0.0424 nM | Ki (human Gcg receptor): > 1150 nM | Ki (human GIP receptor): 0.0704 nM
